{"source": "patent EP4417202A1", "about": "“ANTI-CANCER ACTION OF BAG1-SELECTIVE IMIDAZOPYRIDINE COMPOUNDS IN STEROID HORMONE RECEPTOR-POSITIVE BREAST AND PROSTATE CANCER” (Karlsruher Institut für Technologie, priority 2023, dated 2024)", "system": "AR target gene expression", "test": "Quantitative RT-PCR of AR target genes in LNCaP cells", "assay_type": "cell-based", "details": "10 nM DHT, 16 h, compared among the six selected imidazopyridines", "description": "MCF-7, T47D and LNCaP cells (5×10^4 each) were seeded in 6-well plates and cultured with hormone-depleted medium for 3 days. Subsequently, the MCF-7 and T47D cells were treated with 10 nM 17-β-estradiol (E2) or dihydrotestosterone (DHT) for the LNCaP cells, 1 µM) X15695 (for the MCF-7 and T47D cells) or 5 µM) for LNCaP cells and X15695 together with E2 or DHT. A 1 h pre-treatment with X15695 was performed prior to treatment with E2 or DHT for 16 h. RNA was extracted using innuPREP RNA mini Kit 2.0 (Analytic Jena, Berlin, Germany). 1 µg RNA per sample was used as input material for the RNA sample preparations. Sequencing libraries were generated using NEBNext® UltraTM RNA Library Prep Kit for Illumina® (NEB, USA) following the manufacturer's recommendations and index codes were added to attribute sequences to each sample. The clustering of the index-coded samples was performed on a cBot Cluster Generation System using PE Cluster Kit cBot-HS (Illumina) according to the manufacturer's instructions. After cluster generation, the library preparations were sequenced on an Illumina platform and paired-end reads were generated. Library preparation and sequencing were carried out by Novogene Europe, Cambridge, UK. […] Select target genes were analyzed by RT-PCR experiments with RNA from the samples used for the RNA-seq analysis. […]", "data": [{"compound": "Fc1ccc(-c2cn3cc(C(F)(F)F)cc(Cl)c3n2)cc1", "note": "[Compound X15695, 8-Chloro-2-(4-fluorophenyl)-6-(trifluoromethyl)imidazo[1,2-a]pyridine]", "values": [{"measurement": "attenuation of androgen-induced AR target gene expression", "result": "the compound with the most inhibitory activity"}]}]}
